Assay results as given in ChEMBL document CHEMBL3885881, “DrugMatrix”.

Organism: Rattus norvegicus
Experiment: DrugMatrix - Regimen: Daily Repeat
Type: toxicity, organism-based, Sprague-Dawley
Design: regimen Daily Repeat, gender Male, age 6-8 weeks
Conditions: in vivo, po, route oral GAVAGE, vehicle .5 % CMC; for BASOPHIL / EOSINOPHIL / ERYTHROCYTE COUNT / HEMATOCRIT / HEMOGLOBIN / LEUKOCYTE COUNT / LYMPHOCYTE / MEAN CORPUSCULAR HEMOGLOBIN / MEAN CORPUSCULAR HEMOGLOBIN CONCENTRATION / MEAN CORPUSCULAR VOLUME / MONOCYTE / NEUTROPHIL / PLATELET COUNT: tissue Blood; for ALANINE AMINOTRANSFERASE / ALBUMIN / ALKALINE PHOSPHATASE / ASPARTATE AMINOTRANSFERASE / BLOOD UREA NITROGEN / CHLORIDE / CHOLESTEROL / CREATINE PHOSPHOKINASE / CREATININE / GLUCOSE / PHOSPHORUS / POTASSIUM / SODIUM / TOTAL BILIRUBIN / TOTAL PROTEIN: tissue Plasma
[1] = 1 mg/kg, 120 h, dose level Low, time 5 day
[2] = 22 mg/kg, 72 h, dose level High, time 3 day
[3] = 22 mg/kg, 120 h, dose level High, time 5 day

N=C(N)NC(=O)c1nc(Cl)c(N)nc1N [AMILORIDE]
BASOPHIL [1]: 0% | EOSINOPHIL [1]: 0% | ERYTHROCYTE COUNT [1]: 5.82 x10E6/uL | HEMATOCRIT [1]: 35.67% | HEMOGLOBIN [1]: 14.2 G/DL | LEUKOCYTE COUNT [1]: 12.4 x10E3/uL | LYMPHOCYTE [1]: 85.33% | MEAN CORPUSCULAR HEMOGLOBIN [1]: 24.43 pg | MEAN CORPUSCULAR HEMOGLOBIN CONCENTRATION [1]: 39.93 G/DL | MEAN CORPUSCULAR VOLUME [1]: 61.3 fL | MONOCYTE [1]: 2% | NEUTROPHIL [1]: 12.67% | PLATELET COUNT [1]: 1224 x10E3/uL | ALANINE AMINOTRANSFERASE [1]: 35.33 u/L | ALBUMIN [1]: 3.67 G/DL | ALKALINE PHOSPHATASE [1]: 386.67 u/L | ASPARTATE AMINOTRANSFERASE [1]: 62 u/L | BLOOD UREA NITROGEN [1]: 15 mg/dL | CHLORIDE [1]: 105.33 MEQ/L | CHOLESTEROL [1]: 74 mg/dL | CREATINE PHOSPHOKINASE [1]: 130.33 u/L | CREATININE [1]: 0.63 mg/dL | GLUCOSE [1]: 171 mg/dL | PHOSPHORUS [1]: 10.63 mg/dL | POTASSIUM [1]: 6.7 MEQ/L | SODIUM [1]: 150 MEQ/L | TOTAL BILIRUBIN [1]: 0.5 mg/dL | TOTAL PROTEIN [1]: 6.1 G/DL | BASOPHIL [2]: 0% | EOSINOPHIL [2]: 1% | ERYTHROCYTE COUNT [2]: 5.75 x10E6/uL | HEMATOCRIT [2]: 35.27% | HEMOGLOBIN [2]: 13.6 G/DL | LEUKOCYTE COUNT [2]: 10.47 x10E3/uL | LYMPHOCYTE [2]: 85% | MEAN CORPUSCULAR HEMOGLOBIN [2]: 23.63 pg | MEAN CORPUSCULAR HEMOGLOBIN CONCENTRATION [2]: 38.63 G/DL | MEAN CORPUSCULAR VOLUME [2]: 61.17 fL | MONOCYTE [2]: 1.33% | NEUTROPHIL [2]: 12.67% | PLATELET COUNT [2]: 1066.33 x10E3/uL | ALANINE AMINOTRANSFERASE [2]: 46 u/L | ALBUMIN [2]: 4.03 G/DL | ALKALINE PHOSPHATASE [2]: 373.67 u/L | ASPARTATE AMINOTRANSFERASE [2]: 68.33 u/L | BLOOD UREA NITROGEN [2]: 23.33 mg/dL | CHLORIDE [2]: 102.67 MEQ/L | CHOLESTEROL [2]: 70 mg/dL | CREATINE PHOSPHOKINASE [2]: 117 u/L | CREATININE [2]: 0.7 mg/dL | GLUCOSE [2]: 167 mg/dL | PHOSPHORUS [2]: 11.37 mg/dL | POTASSIUM [2]: 7.33 MEQ/L | SODIUM [2]: 146 MEQ/L | TOTAL BILIRUBIN [2]: 0.57 mg/dL | TOTAL PROTEIN [2]: 6.63 G/DL | BASOPHIL [3]: 0% | EOSINOPHIL [3]: 0% | ERYTHROCYTE COUNT [3]: 6.16 x10E6/uL | HEMATOCRIT [3]: 36.37% | HEMOGLOBIN [3]: 14.6 G/DL | LEUKOCYTE COUNT [3]: 18.57 x10E3/uL | LYMPHOCYTE [3]: 86% | MEAN CORPUSCULAR HEMOGLOBIN [3]: 23.73 pg | MEAN CORPUSCULAR HEMOGLOBIN CONCENTRATION [3]: 40.17 G/DL | MEAN CORPUSCULAR VOLUME [3]: 59.03 fL | MONOCYTE [3]: 1.33% | NEUTROPHIL [3]: 11.67% | PLATELET COUNT [3]: 1100.67 x10E3/uL | ALANINE AMINOTRANSFERASE [3]: 47.33 u/L | ALBUMIN [3]: 3.77 G/DL | ALKALINE PHOSPHATASE [3]: 450.67 u/L | ASPARTATE AMINOTRANSFERASE [3]: 62 u/L | BLOOD UREA NITROGEN [3]: 22.33 mg/dL | CHLORIDE [3]: 104.67 MEQ/L | CHOLESTEROL [3]: 76 mg/dL | CREATINE PHOSPHOKINASE [3]: 128.33 u/L | CREATININE [3]: 0.63 mg/dL | GLUCOSE [3]: 167.67 mg/dL | PHOSPHORUS [3]: 10.73 mg/dL | POTASSIUM [3]: 6.83 MEQ/L | SODIUM [3]: 148.33 MEQ/L | TOTAL BILIRUBIN [3]: 0.47 mg/dL | TOTAL PROTEIN [3]: 6.07 G/DL
